Laboratory results taken from PMC6445228, “Synthesis and biological evaluation of anti-Toxoplasma gondii activity of a novel scaffold of thiazolidinone derivatives” (Journal of Enzyme Inhibition and Medicinal Chemistry, 2017).
Like-named read-outs stand apart in the source and are kept apart here.

Tests used:
[1] = test system: T. gondii RH-2 F tachyzoites; assay: Five-day growth inhibition assay (tachyzoite growth, colorimetric); assay type: cell-based, Toxoplasma gondii; settings: 120 h; for IC50: read-out: IC50, median inhibitory concentration, a measure of tachyzoite inhibition; for IC90: read-out: IC90, concentration at which 90% of the tachyzoite growth is inhibited
Method: (§1) Using published methods[8]^,[19], all of the prepared N-substituted thiazolidinones derivatives were evaluated in vitro for (i) host cell cytotoxicity as well as for the ability to inhibit tachyzoite growth over a period of 5 days (Table 1), for (ii) the ability to inhibit tachyzoite invasion of host cells (Figure 1), and for (iii) the ability to inhibit intracellular tachyzoite replication (Figure 2).
(§2) Compounds were tested for the ability to inhibit in vitro tachyzoite (T. gondii RH-2 F (50839); ATCC, VA) and human foreskin fibroblast (HFF; ATCC) growth for 120 h using a published colorimetric assay[8]^,[19]. Stock solutions of all compounds were 10 mM in DMSO. Serial 0.5 log10 dilutions (320–0.032 μM) of each compound were tested. Data from three separate experiments were analysed and the IC50, IC90, and TD50 calculated using Calcusyn software (Biosoft, Cambridge, UK). The therapeutic index (TI), a measure of specific anti-T. gondii activity, was calculated with the formula shown under Table 1.
We explored the chemical space and the influence on the biological activity of different groups (substituted aromatic and bicyclic rings) at the lactam NH of the core nucleus. […] In the five-day growth inhibition assay, compounds were added only once, just before addition of tachyzoites, and thus were present for multiple cycles, up to 20, of parasite replication.

[2] = test system: human foreskin fibroblast (HFF); assay: Five-day growth inhibition assay, host cell cytotoxicity; settings: 120 h
Method: as §1, §2

[3] = test system: extracellular T. gondii tachyzoites invading HFF host cells; assay: Red/green invasion assay (immunofluorescence); assay type: cell-based, Toxoplasma gondii; settings: 10 μM, 20 min preincubation, 1 h at 37 °C on HFF, vs vehicle, p ≤ .05
Method: Figure 1. Invasion assay of ferrocene-based thiazolidinone derivatives (10 μM). VHL: vehicle (DMSO). *Significant inhibition of tachyzoite invasion (p ≤ .05, two-tailed Students’ t test). **Significant inhibition of tachyzoite attachment (p ≤ .05, two-tailed Students’ t test). Data are compiled from results of three independent experiments.
The ferrocene-based derivatives (10 μM) were examined for activity directly on extracellular tachyzoites using an established immunofluorescence-based red/green invasion assay. This assay measures a compound’s ability to impede the parasite-driven host cell entry of tachyzoites through the host cell plasma membrane. Invaded (intracellular) tachyzoites are labelled green while tachyzoites attached to the surface, but unable to invade, are labelled red. A decrease in the number of invaded tachyzoites relative to vehicle [VHL (DMSO)] is indicative of invasion inhibition. A decrease in the number of invaded plus attached tachyzoites relative to same of VHL is indicative of inhibition of attachment. Data shown are mean values ± SEM of three independent experiments.
We next evaluated the ability of the ferrocene-based derivatives to act directly upon extracellular tachyzoites by using a standard red/green invasion assay. This assay interrogates compounds for inhibition of the first step in host cell infection, i.e. invasion and entry into susceptible cells. In this assay (Figure 1), cell-free purified tachyzoites were incubated with a test compound (10 μM), sulfadiazine (10 μM), or VHL for 20 min at room temperature before being added to HFF host cells. After allowing 1 h at 37 °C for the tachyzoites to attach and invade, the cells were processed by immunofluorescent staining. Extracellular/attached tachyzoites were labelled red while intracellular/penetrated tachyzoites were labelled green.

[4] = test system: intracellular T. gondii tachyzoites; assay: Replication assay (immunofluorescence, tachyzoites per parasitophorous vacuole); assay type: cell-based, Toxoplasma gondii; settings: 10 μM, added 2 h after infection, 24 h
Method: Figure 2. Replication assay of ferrocene-based thiazolidinone derivatives (10 μM). VHL: vehicle (DMSO); Tz: tachyzoites. Data are compiled from results of three independent experiments.
This assay measures a compound’s ability to inhibit tachyzoite replication over a period of 24 h. The numbers of parasitophorous vacuoles (PV) in experimentally treated infected cells containing 1, 2, 4, or 8 + tachyzoites/vacuole were enumerated, graphed, and compared to those of the VHL-treated infected cells. Data for each size vacuole are shown as the fraction of the total number of vacuoles counted in 10–15 fields. Data shown were compiled from three independent experiments. A decrease in the number of tachyzoites in a vacuole indicates inhibition of replication. Toxoplasma gondii tachyzoites only replicate within the PV inside the host cell with one cycle of replication taking 6–8 h. […] Consequently, a decrease in the number of intravacuolar tachyzoites relative to that of VHL indicates inhibition of replication. Specifically, predominance, i.e. the largest fraction of the total number, of PVs containing 1 or 2 tachyzoites indicates replication inhibition.
Lastly, the replication assay interrogates a compound’s ability to inhibit an established intracellular Toxoplasma infection over the relatively short period of 24 h (3–4 cycles of replication). […] Likewise, allowance of just one cycle of replication results in a majority of PVs containing just two tachyzoites. However, a predominance of PVs containing eight or more tachyzoites indicates absence of inhibitory activity over a 24 h period (see detailed explanation above in Experimental Protocols).

[5] = T. gondii RH-2 F in HFF, three experiments
[6] = HFF cells, top concentration 320 μM
[7] = Toxoplasma gondii, T. gondii RH-2 F in HFF, three experiments

CC(=NN=C1SCC(=O)N1Cc1ccc([N+](=O)[O-])cc1)c1ccc[cH-]1.[Fe+2].c1cc[cH-]c1 [Compound 9, 3-(4-Nitrobenzyl)-2-((1-(ferrocen-2-yl)ethylidene)hydrazono)thiazolidin-4-one]
IC50 [1, 5]: 73 µM
IC90 [1, 5]: 292 µM
TD50, median toxicity dose, a measure of cytotoxicity against host cells [2, 6]: 217 µM
Inhibition of tachyzoite attachment [3]: significantly inhibited attachment

CC(=NN=C1SCC(=O)N1Cc1ccccc1[N+](=O)[O-])c1ccc[cH-]1.[Fe+2].c1cc[cH-]c1 [Compound 3, 3-(2-Nitrobenzyl)-2-((1-(ferrocen-2-yl)ethylidene)hydrazono)thiazolidin-4-one]
IC50 [1, 5]: 15 µM
IC90 [1, 5]: 78 µM
TD50, median toxicity dose, a measure of cytotoxicity against host cells [2, 6]: ≥320 µM
Inhibition of tachyzoite invasion [3]: notable exceptions

Nc1ccc(S(=O)(=O)Nc2ncccn2)cc1 [Sulfadiazine, reference compound]
IC50 ([1]; Toxoplasma gondii): 43 µM
IC90 ([1]; Toxoplasma gondii): 219 µM
TD50, median toxicity dose, a measure of cytotoxicity against host cells ([2]; human): 281 µM
Inhibition of intracellular tachyzoite replication [4]: robust replication inhibition

CC(=NN=C1SCC(=O)N1Cc1ccccc1F)c1ccc[cH-]1.[Fe+2].c1cc[cH-]c1 [Compound 12, 3-(2-Fluorobenzyl)-2-((1-(ferrocen-2-yl)ethylidene)hydrazono)thiazolidin-4-one]
IC50 [1, 5]: 17 µM
IC90 [1, 5]: 64 µM
TD50, median toxicity dose, a measure of cytotoxicity against host cells [2, 6]: ≥320 µM
Fraction of PVs containing eight or more tachyzoites [4]: 10–18%
Inhibition of intracellular tachyzoite replication [4]: modest inhibition

CC(=NN=C1SCC(=O)N1Cc1cccc2ccccc12)c1ccc[cH-]1.[Fe+2].c1cc[cH-]c1 [Compound 30, 3-(Naphthalen-1-ylmethyl)-2-((1-(ferrocen-2-yl)ethylidene)hydrazono)thiazolidin-4-one]
IC50 [1, 5]: 5 µM
IC90 [1, 5]: 17 µM
TD50, median toxicity dose, a measure of cytotoxicity against host cells [2, 6]: ≥320 µM
Inhibition of tachyzoite attachment [3]: significantly inhibited attachment

CC(=NN=C1SCC(=O)N1Cc1ccc(F)cc1)c1ccc[cH-]1.[Fe+2].c1cc[cH-]c1 [Compound 18, 3-(4-Fluorobenzyl)-2-((1-(ferrocen-2-yl)ethylidene)hydrazono)thiazolidin-4-one]
IC50 [1, 5]: 6 µM
IC90 [1, 5]: 16 µM
TD50, median toxicity dose, a measure of cytotoxicity against host cells [2, 6]: ≥320 µM
Fraction of PVs containing eight or more tachyzoites [4]: 10–18%
Inhibition of intracellular tachyzoite replication [4]: modest inhibition

CC(=NN=C1SCC(=O)N1Cc1cccc(F)c1)c1ccc[cH-]1.[Fe+2].c1cc[cH-]c1 [Compound 15, 3-(3-Fluorobenzyl)-2-((1-(ferrocen-2-yl)ethylidene)hydrazono)thiazolidin-4-one]
IC50 [1, 5]: 8 µM
IC90 [1, 5]: 57 µM
TD50, median toxicity dose, a measure of cytotoxicity against host cells [2, 6]: ≥320 µM
Inhibition of tachyzoite attachment [3]: significantly inhibited attachment

CC(=NN=C1SCC(=O)N1Cc1ccccc1[N+](=O)[O-])c1cccs1 [Compound 2, 3-(2-Nitrobenzyl)-2-((1-(thiophen-2-yl)ethylidene)hydrazono)thiazolidin-4-one]
IC50 [1, 7]: 37 µM
IC90 [1, 7]: 155 µM
TD50, median toxicity dose, a measure of cytotoxicity against host cells ([2]; human): 280 µM
melting point: 150 to 151 °C

CC(=NN=C1SCC(=O)N1Cc1ccc(Cl)cc1)c1ccc[cH-]1.[Fe+2].c1cc[cH-]c1 [Compound 27, 3-(4-Chlorobenzyl)-2-((1-(ferrocen-2-yl)ethylidene)hydrazono)thiazolidin-4-one]
IC50 [1, 5]: 10 µM
IC90 [1, 5]: 55 µM
TD50, median toxicity dose, a measure of cytotoxicity against host cells [2, 6]: ≥320 µM
Fraction of PVs containing eight or more tachyzoites [4]: ≤ 1%
Inhibition of intracellular tachyzoite replication [4]: fairly strong inhibition
Inhibition of tachyzoite invasion [3]: notable exceptions
